Experiments:
[1] = target: T1, Melatonin receptor type 1A (Homo sapiens, UniProt P48039)
[2] = Antiproliferative activity against mouse mammary carcinoma cell after 24 hrs by MTT assay; assay type: functional
MDA-MB-231 [3] = test: Antiproliferative activity against human MDA-MB-231 cells after 24 hrs by MTT assay; assay type: functional, cell-based; conditions: MDA-MB-231, 24 h
BT-549 [4] = test: Antiproliferative activity against human BT549 cells after 24 hrs by MTT assay; assay type: functional, cell-based; conditions: BT-549, 24 h
MCF7 [5] = test: Antiproliferative activity against human MCF7 cells at 1 nM to 100 uM after 24 hrs by MTT assay relative to control; assay type: functional; conditions: at 0.001 to 100 µM
[6] = Antiproliferative activity against mouse mammary carcinoma cell at 1 nM to 100 uM after 24 hrs by MTT assay relative to control; assay type: functional; conditions: at 0.001 to 100 µM
MDA-MB-231 [7] = test: Antiproliferative activity against human MDA-MB-231 cells at 1 nM to 100 uM after 24 hrs by MTT assay relative to control; assay type: functional; conditions: at 0.001 to 100 µM
BT-549 [8] = test: Antiproliferative activity against human BT549 cells at 1 nM to 100 uM after 24 hrs by MTT assay relative to control; assay type: functional; conditions: at 0.001 to 100 µM
MCF7 [9] = test: Inhibition of cell migration in human MCF7 cells at 100 uM after 24 hrs by inverted fluorescence microscopy based scratch assay relative to control; assay type: functional; conditions: MCF7, 24 h
[10] = Inhibition of cell migration in mouse mammary carcinoma cell at 100 uM after 24 hrs by inverted fluorescence microscopy based scratch assay relative to control; assay type: functional
MDA-MB-231 [11] = test: Inhibition of cell migration in human MDA-MB-231 cells at 100 uM after 24 hrs by inverted fluorescence microscopy based scratch assay relative to control; assay type: functional; conditions: MDA-MB-231, 24 h
BT-549 [12] = test: Inhibition of cell migration in human BT549 cells at 100 uM after 24 hrs by inverted fluorescence microscopy based scratch assay relative to control; assay type: functional; conditions: BT-549, 24 h
MCF7 [13] = test: Antiproliferative activity against human MCF7 cells after 24 hrs by MTT assay; assay type: functional, cell-based; conditions: MCF7, 24 h
[14] = target: T1, Melatonin receptor type 1A; remark: listed apart in the source

T1 sequence (P48039 whole entry): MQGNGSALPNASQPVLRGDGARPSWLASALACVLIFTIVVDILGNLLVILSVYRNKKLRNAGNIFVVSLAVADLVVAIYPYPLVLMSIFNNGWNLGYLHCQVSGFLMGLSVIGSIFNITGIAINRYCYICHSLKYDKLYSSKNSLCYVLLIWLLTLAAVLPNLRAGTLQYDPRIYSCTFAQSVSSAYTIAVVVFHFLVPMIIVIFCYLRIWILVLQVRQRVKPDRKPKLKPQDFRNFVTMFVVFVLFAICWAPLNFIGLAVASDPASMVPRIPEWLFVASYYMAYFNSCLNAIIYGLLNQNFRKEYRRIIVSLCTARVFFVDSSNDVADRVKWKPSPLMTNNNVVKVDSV

SMILES	Ki [1]	IC50 [2]	IC50 (MDA-MB-231 [3])	IC50 (BT-549 [4])	Efficacy (MCF7 [5])	Efficacy [6]	Efficacy (MDA-MB-231 [7])	Efficacy (BT-549 [8])	inhibition at 100 µM (MCF7 [9])	inhibition at 100 µM [10]	inhibition at 100 µM (MDA-MB-231 [11])	inhibition at 100 µM (BT-549 [12])	IC50 (MCF7 [13])	KiH [14]	KiL [14]
COc1cc(/C=C/C(=O)O)ccc1OC/C=C(\C)CCC=C(C)C	59 µM	2.5 µM	22 µM	5.6 µM	102%	99%	79%	93%	–	–	–	–	–	–	–
CC(C)=CCC/C(C)=C/COc1ccc2ccc(=O)oc2c1	1.9 µM	–	80 µM	24 µM	90%	57%	67%	86%	3%	5%	-36%	7%	–	–	–
O=c1ccc2ccc(O/C=C/c3ccccc3)cc2o1	0.37 µM	–	6.6 µM	140 µM	87%	93%	82%	86%	–	–	–	–	2.2 µM	–	–
CCC#CCOc1ccc2ccc(=O)oc2c1 [7-(2-PENTYNYLOXY)COUMARIN]	0.888 µM	24 µM	–	74 µM	89%	101%	87%	86%	–	–	–	–	50 µM	–	–
CC(C)=CCOc1ccc2ccc(=O)oc2c1 [7-PRENYLOXYCOUMARIN]	5.2 µM	–	–	37 µM	105%	98%	83%	94%	–	–	–	–	–	–	–
COc1cc(/C=C/C=O)ccc1OCC=C(C)C [BOROPINAL]	0.786 µM	0.22 µM	63 µM	0.045 µM	94%	96%	79%	83%	–	–	–	–	–	–	–
COc1cc(/C=C/C(=O)O)ccc1OCC=C(C)C [BOROPINIC ACID]	–	6.1 µM	–	15 µM	102%	98%	89%	97%	–	–	–	–	0.7 µM	–	–
COc1cc(/C=C/C(=O)O)ccc1O [FERULATE]	–	–	0.5 µM	1.2 µM	96%	100%	92%	99%	–	–	–	–	–	–	–
COc1ccc2[nH]cc(CCNC(C)=O)c2c1 [MELATONIN]	–	0.2 µM	0.9 µM	30000 µM	87%	91%	92%	91%	–	–	–	–	–	–	–
O=c1ccc2ccc(O)cc2o1 [UMBELLIFERONE]	–	–	3.7 µM	1000 µM	124%	93%	88%	91%	–	–	–	–	2.9 µM	–	–
CC(C)=CCC/C(C)=C/CC/C(C)=C/COc1ccc2ccc(=O)oc2c1 [UMBELLIPRENIN]	–	–	30 µM	–	81%	61%	60%	85%	9%	7%	-52%	23%	–	1.6 nM	3.3 nM

— ChEMBL document CHEMBL4138184 (J Nat Prod, 2017)
